# Reference: PubChem BioAssay (NCI)
#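 Five compound concentrations were applied to cells in 96-well plates for 48 hours; endpoints were derived by simple linear interpolation of the resulting dose-response curve. TGI denotes the concentration required for complete inhibition of growth.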
# Assays:
# Test in all cases: DTP human tumour cell line panel, 48 h
# [1] = system: HOP-18 NSCLC
# [2] = system: SF-268 CNS
# [3] = system: K-562 leukemia
# [4] = system: HCT-116 colon
# [5] = system: KM20L2 colon
# [6] = system: SNB-19 CNS
# [7] = system: HT29 colon
# [8] = system: A498 renal
# [9] = system: SNB-78 CNS
# [10] = system: CCRF-CEM leukemia
# [11] = system: DMS 273 small cell lung
# [12] = system: IGROV1 ovarian
# [13] = system: LXFL 529 NSCLC
# [14] = system: COLO 205 colon
# [15] = system: HOP-92 NSCLC
# [16] = system: HOP-62 NSCLC
# [17] = system: TK-10 renal
# [18] = system: KM12 colon
# [19] = system: HL-60(TB) leukemia
# [20] = system: SN12C renal
# [21] = system: HCT-15 colon
# [22] = system: OVCAR-3 ovarian
# [23] = system: SK-MEL-28 melanoma
# [24] = system: SW-620 colon
# [25] = system: SF-539 CNS
# [26] = system: 786-0 renal
# [27] = system: NCI-H522 lung
# [28] = system: NCI-H460 lung
# [29] = system: M14 melanoma
# [30] = system: SR leukemia
# [31] = system: OVCAR-4 ovarian
# [32] = system: MALME-3M melanoma
# [33] = system: NCI-H23 lung
# [34] = system: XF 498 CNS
# [35] = system: MOLT-4 leukemia
# [36] = system: M19-MEL melanoma
# [37] = system: UACC-257 melanoma
# [38] = system: RPMI-8226 leukemia
# [39] = system: ACHN renal
# [40] = system: HCC-2998 colon
# [41] = system: SF-295 CNS
# [42] = system: A549 NSCLC
# [43] = system: OVCAR-5 ovarian
# [44] = system: NCI-H226 lung
# [45] = system: DLD-1 colon
# [46] = system: SK-OV-3 ovarian
# [47] = system: SK-MEL-2 melanoma
# [48] = system: UO-31 renal
# [49] = system: EKVX NSCLC
# [50] = system: RXF 393 renal
# [51] = system: DMS 114 small cell lung
# [52] = system: U251 CNS
# [53] = system: LOX IMVI melanoma
# [54] = system: OVCAR-8 ovarian
# [55] = system: SNB-75 CNS
# [56] = system: UACC-62 melanoma
# [57] = system: SK-MEL-5 melanoma
compound,measurement,setting,value
Nc1ncnc2c1ncn2C1CC(OCc2ccccc2[N+](=O)[O-])C(CO)O1 (stereo not drawn),TGI,[1],> 50 µM
same,TGI,[2],> 50 µM
same,TGI,[3],> 50 µM
same,TGI,[4],> 50 µM
same,TGI,[5],> 50 µM
same,TGI,[6],> 50 µM
same,TGI,[7],> 50 µM
same,TGI,[8],> 50 µM
same,TGI,[9],> 50 µM
same,TGI,[10],> 50 µM
same,TGI,[11],> 50 µM
same,TGI,[12],> 50 µM
same,TGI,[13],> 50 µM
same,TGI,[14],16.9 µM
same,TGI,[15],> 50 µM
same,TGI,[16],> 50 µM
same,TGI,[17],> 50 µM
same,TGI,[18],> 50 µM
same,TGI,[19],31.6 µM
same,TGI,[20],> 50 µM
same,TGI,[21],> 50 µM
same,TGI,[22],> 50 µM
same,TGI,[23],> 50 µM
same,TGI,[24],> 50 µM
same,TGI,[25],> 50 µM
same,TGI,[26],> 50 µM
same,TGI,[27],35.9 µM
same,TGI,[28],> 50 µM
same,TGI,[29],> 50 µM
same,TGI,[30],34.6 µM
same,TGI,[31],> 50 µM
same,TGI,[32],> 50 µM
same,TGI,[33],> 50 µM
same,TGI,[34],> 50 µM
same,TGI,[35],> 50 µM
same,TGI,[36],48.5 µM
same,TGI,[37],> 50 µM
same,TGI,[38],> 50 µM
same,TGI,[39],47.6 µM
same,TGI,[40],> 50 µM
same,TGI,[41],> 50 µM
same,TGI,[42],> 50 µM
same,TGI,[43],> 50 µM
same,TGI,[44],36.3 µM
same,TGI,[45],> 50 µM
same,TGI,[46],> 50 µM
same,TGI,[47],> 50 µM
same,TGI,[48],48 µM
same,TGI,[49],> 50 µM
same,TGI,[50],21.4 µM
same,TGI,[51],47.2 µM
same,TGI,[52],> 50 µM
same,TGI,[53],> 50 µM
same,TGI,[54],> 50 µM
COc1cccc(-c2cc(=O)c3ccccc3[nH]2)c1,TGI,[1],> 100 µM
same,TGI,[2],> 100 µM
same,TGI,[3],> 100 µM
same,TGI,[4],> 100 µM
same,TGI,[5],27.1 µM
same,TGI,[6],> 100 µM
same,TGI,[7],> 100 µM
same,TGI,[8],> 100 µM
same,TGI,[10],> 100 µM
same,TGI,[11],> 100 µM
same,TGI,[12],> 100 µM
same,TGI,[13],> 100 µM
same,TGI,[14],> 38.2 µM
same,TGI,[55],> 100 µM
same,TGI,[16],> 100 µM
same,TGI,[17],> 100 µM
same,TGI,[18],> 48.4 µM
same,TGI,[19],8.57 µM
same,TGI,[20],> 100 µM
same,TGI,[21],> 100 µM
same,TGI,[22],> 31.6 µM
same,TGI,[23],> 100 µM
same,TGI,[24],> 100 µM
same,TGI,[25],18.7 µM
same,TGI,[26],> 100 µM
same,TGI,[27],> 34.2 µM
same,TGI,[28],> 100 µM
same,TGI,[29],> 100 µM
same,TGI,[30],> 100 µM
same,TGI,[56],> 100 µM
same,TGI,[31],> 100 µM
same,TGI,[32],> 100 µM
same,TGI,[33],> 100 µM
same,TGI,[34],72.3 µM
same,TGI,[35],> 100 µM
same,TGI,[36],> 100 µM
same,TGI,[38],> 100 µM
same,TGI,[39],> 100 µM
same,TGI,[40],18.1 µM
same,TGI,[41],14.8 µM
same,TGI,[42],> 100 µM
same,TGI,[57],> 100 µM
same,TGI,[43],> 100 µM
same,TGI,[44],> 29.6 µM
same,TGI,[45],> 100 µM
same,TGI,[46],> 100 µM
same,TGI,[47],> 100 µM
same,TGI,[48],> 100 µM
same,TGI,[49],> 100 µM
same,TGI,[50],21 µM
same,TGI,[51],> 59.3 µM
same,TGI,[52],> 100 µM
same,TGI,[53],> 100 µM
same,TGI,[54],> 72.7 µM
